According to patent publication US20260207563A1, “UREA COMPOUNDS AS ACTIVATORS OF POTASSIUM CHANNELS KV7.2/7.3 USEFUL IN THE TREATMENT OF CNS AND PNS DISORDERS” (ANGELINI PHARMA S.P.A., priority 2022, published 2026):

Legend:
Format in all cases: cell-based
[1] = biological target: T1, homomeric KV7.4 channel (KCNQ4) (Homo sapiens, UniProt P56696); test: Automated patch-clamp (Qube) counter-screening assay against KV7.4 channel; settings: CHO-K1 cells expressing KV7.4; class by maximal shift in the Vhalf at 30 μM
T1 construct: host or cells: CHO-K1
Procedure, shortened: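 EC50 and maximal shift in half-activation voltage come from 4-parameter logistic fits of mean Vhalf shifts. The series had ten 1-in-3 concentrations, highest 30 μM, each tested in quadruplicate. Recordings used automated Qube patch clamp on a stable CHO-K1 line expressing KCNQ4, and selectivity was judged from the 30 μM Vhalf shift.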

[2] = biological target: T2, heteromeric KV7.2/KV7.3 channels (KCNQ2, KCNQ3) (Homo sapiens, UniProt O43525+O43526); test: Automated patch-clamp (Sophion Qube 384) potency assay against KV7.2/KV7.3 channels; settings: CHO-K1/Kv7.2/Kv7.3 cells; for EC50: EC50 from concentration-response of shift in Vhalf, 10 concentrations up to 30 μM, read-out: Kv7.2/7.3 EC50; for Kv7.2/7.3 ΔV1/2: maximal shift in the Vhalf from the top of the curve
T2 construct: expressed in transfected cells; host or cells: CHO-K1
Procedure, shortened: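 Activator potency: EC50 from 4-parameter logistic fit of mean Vhalf shift across ten 1-in-3 dilutions starting at 30 μM (n=4), with DMSO (typically 0.3%) control. Currents recorded by leak-subtracted whole-cell clamp of stable CHO-K1 KV7.2/KV7.3 cells, held at −80 mV, stepped −100 to +20 mV then 0 mV tails.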

[3] = biological target: T3, heteromeric KV7.3/KV7.5 channel (KCNQ3, KCNQ5) (Homo sapiens, UniProt O43525+Q9NR82); test: Automated patch-clamp counter-screening against KV7.3/KV7.5 channel; settings: HEK293 cells expressing Kv7.3/KV7.5; class by maximal shift in the Vhalf at 30 μM
T3 construct: host or cells: HEK293
Procedure, shortened: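 Potency came from a 4-parameter logistic fit of mean voltage-of-half-activation shifts, yielding EC50 and maximal shift; selectivity was judged on the shift at 30 μM. Compounds were applied at ten 3-fold dilutions from 30 μM in quadruplicate to HEK293 cells stably carrying Kv7.3 with tet-inducible Kv7.5.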

O=C(NCc1ccnc(OCC(F)(F)F)c1)NC1COc2ccc(F)cc21 (centres unmarked) [Compound 147]
Kv7.4 selectivity criteria [1]: A (Selective compounds showed Kv7.4 and/or Kv7.3/7.5 ΔV1/2 equal to or lower than 15 mV (letter A in table 3))
EC50 [2]: 1890 nM
Kv7.2/7.3 ΔV1/2 [2]: 15.93 mV
Kv7.3/7.5 selectivity criteria [3]: A (Selective compounds showed Kv7.4 and/or Kv7.3/7.5 ΔV1/2 equal to or lower than 15 mV (letter A in table 3))

COCC1(NC(=O)NCc2ccnc(OCC(F)(F)F)c2)Cc2ccccc2C1 [Compound 148]
Kv7.4 selectivity criteria [1]: A (Selective compounds showed Kv7.4 and/or Kv7.3/7.5 ΔV1/2 equal to or lower than 15 mV (letter A in table 3))
EC50 [2]: 1820 nM
Kv7.2/7.3 ΔV1/2 [2]: 15.43 mV
Kv7.3/7.5 selectivity criteria [3]: A (Selective compounds showed Kv7.4 and/or Kv7.3/7.5 ΔV1/2 equal to or lower than 15 mV (letter A in table 3))

O=C(NCc1ccnc(OCC(F)(F)F)c1)NC1CSc2ccccc2C1 (centres unmarked) [Compound 149]
Kv7.4 selectivity criteria [1]: A (Selective compounds showed Kv7.4 and/or Kv7.3/7.5 ΔV1/2 equal to or lower than 15 mV (letter A in table 3))
EC50 [2]: 618 nM
Kv7.2/7.3 ΔV1/2 [2]: 30.8 mV
Kv7.3/7.5 selectivity criteria [3]: A (Selective compounds showed Kv7.4 and/or Kv7.3/7.5 ΔV1/2 equal to or lower than 15 mV (letter A in table 3))

O=C(NCc1ccnc(OCC(F)(F)F)c1)N[C@@H]1CCCOc2ccccc21 [Compound 150]
Kv7.4 selectivity criteria [1]: B (Non-selective compounds showed Kv7.4 and/or Kv7.3/7.5 ΔV1/2 higher than 15 mV (letter B in table 3))
EC50 [2]: 1310 nM
Kv7.2/7.3 ΔV1/2 [2]: 30.15 mV
Kv7.3/7.5 selectivity criteria [3]: A (Selective compounds showed Kv7.4 and/or Kv7.3/7.5 ΔV1/2 equal to or lower than 15 mV (letter A in table 3))

O=C(NCc1ccnc(OCC(F)(F)F)c1)N[C@H]1c2ccccc2C[C@H]1CO [Compound 151]
Kv7.4 selectivity criteria [1]: A (Selective compounds showed Kv7.4 and/or Kv7.3/7.5 ΔV1/2 equal to or lower than 15 mV (letter A in table 3))
EC50 [2]: 11200 nM
Kv7.2/7.3 ΔV1/2 [2]: 23.51 mV
Kv7.3/7.5 selectivity criteria [3]: A (Selective compounds showed Kv7.4 and/or Kv7.3/7.5 ΔV1/2 equal to or lower than 15 mV (letter A in table 3))

O=C(NCc1ccnc(OCC(F)(F)F)c1)NC1CCSc2ccccc21 (centres unmarked) [Compound 152]
Kv7.4 selectivity criteria [1]: B (Non-selective compounds showed Kv7.4 and/or Kv7.3/7.5 ΔV1/2 higher than 15 mV (letter B in table 3))
EC50 [2]: 1350 nM
Kv7.2/7.3 ΔV1/2 [2]: 36.08 mV
Kv7.3/7.5 selectivity criteria [3]: B (Non-selective compounds showed Kv7.4 and/or Kv7.3/7.5 ΔV1/2 higher than 15 mV (letter B in table 3))

O=C(NCc1ccnc(OC(F)F)c1)N[C@@H]1CCc2ccc(F)cc21 [Compound 153]
Kv7.4 selectivity criteria [1]: B (Non-selective compounds showed Kv7.4 and/or Kv7.3/7.5 ΔV1/2 higher than 15 mV (letter B in table 3))
EC50 [2]: 1600 nM
Kv7.2/7.3 ΔV1/2 [2]: 47.43 mV
Kv7.3/7.5 selectivity criteria [3]: B (Non-selective compounds showed Kv7.4 and/or Kv7.3/7.5 ΔV1/2 higher than 15 mV (letter B in table 3))

O=C(NCc1ccnc(OCC(F)(F)F)c1)Nc1cccc2c1CCC2 [Compound 154]
Kv7.4 selectivity criteria [1]: A (Selective compounds showed Kv7.4 and/or Kv7.3/7.5 ΔV1/2 equal to or lower than 15 mV (letter A in table 3))
EC50 [2]: 617 nM
Kv7.2/7.3 ΔV1/2 [2]: 24.51 mV
Kv7.3/7.5 selectivity criteria [3]: A (Selective compounds showed Kv7.4 and/or Kv7.3/7.5 ΔV1/2 equal to or lower than 15 mV (letter A in table 3))

O=C(NCc1ccnc(OCC(F)(F)F)c1)N[C@H]1c2ccccc2C[C@H]1O [Compound 155]
Kv7.4 selectivity criteria [1]: B (Non-selective compounds showed Kv7.4 and/or Kv7.3/7.5 ΔV1/2 higher than 15 mV (letter B in table 3))
EC50 [2]: 9460 nM
Kv7.2/7.3 ΔV1/2 [2]: 30.26 mV
Kv7.3/7.5 selectivity criteria [3]: B (Non-selective compounds showed Kv7.4 and/or Kv7.3/7.5 ΔV1/2 higher than 15 mV (letter B in table 3))

O=C(NCc1ccnc(OCC(F)(F)F)c1)N[C@@H]1CCCc2ccccc21 [Compound 156]
Kv7.4 selectivity criteria [1]: B (Non-selective compounds showed Kv7.4 and/or Kv7.3/7.5 ΔV1/2 higher than 15 mV (letter B in table 3))
EC50 [2]: 1850 nM
Kv7.2/7.3 ΔV1/2 [2]: 55.46 mV
Kv7.3/7.5 selectivity criteria [3]: B (Non-selective compounds showed Kv7.4 and/or Kv7.3/7.5 ΔV1/2 higher than 15 mV (letter B in table 3))

O=C(NCc1ccnc(OCC(F)(F)F)c1)NCC1CCc2ccccc21 (centres unmarked) [Compound 157]
Kv7.4 selectivity criteria [1]: A (Selective compounds showed Kv7.4 and/or Kv7.3/7.5 ΔV1/2 equal to or lower than 15 mV (letter A in table 3))
EC50 [2]: 4010 nM
Kv7.2/7.3 ΔV1/2 [2]: 18.8 mV
Kv7.3/7.5 selectivity criteria [3]: A (Selective compounds showed Kv7.4 and/or Kv7.3/7.5 ΔV1/2 equal to or lower than 15 mV (letter A in table 3))

N#Cc1cccc2c1CC[C@H]2NC(=O)NCc1ccnc(OCC(F)(F)F)c1 [Compound 158]
Kv7.4 selectivity criteria [1]: B (Non-selective compounds showed Kv7.4 and/or Kv7.3/7.5 ΔV1/2 higher than 15 mV (letter B in table 3))
EC50 [2]: 2550 nM
Kv7.2/7.3 ΔV1/2 [2]: 31.18 mV
Kv7.3/7.5 selectivity criteria [3]: B (Non-selective compounds showed Kv7.4 and/or Kv7.3/7.5 ΔV1/2 higher than 15 mV (letter B in table 3))

Cc1ccc2c(c1)[C@@H](NC(=O)NCc1ccnc(OCC(F)(F)F)c1)CC2 [Compound 159]
Kv7.4 selectivity criteria [1]: A (Selective compounds showed Kv7.4 and/or Kv7.3/7.5 ΔV1/2 equal to or lower than 15 mV (letter A in table 3))
EC50 [2]: 1550 nM
Kv7.2/7.3 ΔV1/2 [2]: 15.05 mV
Kv7.3/7.5 selectivity criteria [3]: A (Selective compounds showed Kv7.4 and/or Kv7.3/7.5 ΔV1/2 equal to or lower than 15 mV (letter A in table 3))

N#Cc1cccc2c1CC[C@@H]2NC(=O)NCc1ccnc(OCC(F)(F)F)c1 [Compound 160]
Kv7.4 selectivity criteria [1]: A (Selective compounds showed Kv7.4 and/or Kv7.3/7.5 ΔV1/2 equal to or lower than 15 mV (letter A in table 3))
EC50 [2]: 3180 nM
Kv7.2/7.3 ΔV1/2 [2]: 25.41 mV
Kv7.3/7.5 selectivity criteria [3]: A (Selective compounds showed Kv7.4 and/or Kv7.3/7.5 ΔV1/2 equal to or lower than 15 mV (letter A in table 3))

C#CCOc1cc(CNC(=O)NCC2CCC(F)(F)CC2)ccn1 [Compound 161]
Kv7.4 selectivity criteria [1]: A (Selective compounds showed Kv7.4 and/or Kv7.3/7.5 ΔV1/2 equal to or lower than 15 mV (letter A in table 3))
EC50 [2]: 7000 nM
Kv7.2/7.3 ΔV1/2 [2]: 26.66 mV
Kv7.3/7.5 selectivity criteria [3]: A (Selective compounds showed Kv7.4 and/or Kv7.3/7.5 ΔV1/2 equal to or lower than 15 mV (letter A in table 3))

O=C(NCc1ccnc(OCC(F)(F)F)c1)N[C@@H]1CCc2ccc(C(F)(F)F)cc21 [Compound 162]
Kv7.4 selectivity criteria [1]: B (Non-selective compounds showed Kv7.4 and/or Kv7.3/7.5 ΔV1/2 higher than 15 mV (letter B in table 3))
EC50 [2]: 926 nM
Kv7.2/7.3 ΔV1/2 [2]: 18.2 mV
Kv7.3/7.5 selectivity criteria [3]: A (Selective compounds showed Kv7.4 and/or Kv7.3/7.5 ΔV1/2 equal to or lower than 15 mV (letter A in table 3))

O=C(NCc1ccnc(OCC(F)(F)F)c1)N[C@H]1CCc2ccc(C(F)(F)F)cc21 [Compound 163]
Kv7.4 selectivity criteria [1]: A (Selective compounds showed Kv7.4 and/or Kv7.3/7.5 ΔV1/2 equal to or lower than 15 mV (letter A in table 3))
EC50 [2]: 1070 nM
Kv7.2/7.3 ΔV1/2 [2]: 27.41 mV
Kv7.3/7.5 selectivity criteria [3]: A (Selective compounds showed Kv7.4 and/or Kv7.3/7.5 ΔV1/2 equal to or lower than 15 mV (letter A in table 3))

COc1cc2c(cc1F)CC[C@H]2NC(=O)NCc1ccnc(OCC(F)(F)F)c1 [Compound 164]
Kv7.4 selectivity criteria [1]: A (Selective compounds showed Kv7.4 and/or Kv7.3/7.5 ΔV1/2 equal to or lower than 15 mV (letter A in table 3))
EC50 [2]: 1240 nM
Kv7.2/7.3 ΔV1/2 [2]: 25.3 mV
Kv7.3/7.5 selectivity criteria [3]: A (Selective compounds showed Kv7.4 and/or Kv7.3/7.5 ΔV1/2 equal to or lower than 15 mV (letter A in table 3))

O=C(NCc1ccnc(OCC(F)(F)F)c1)N[C@@H]1COc2ccc(F)cc21 [Compound 165]
Kv7.4 selectivity criteria [1]: A (Selective compounds showed Kv7.4 and/or Kv7.3/7.5 ΔV1/2 equal to or lower than 15 mV (letter A in table 3))
EC50 [2]: 2660 nM
Kv7.2/7.3 ΔV1/2 [2]: 28.4 mV
Kv7.3/7.5 selectivity criteria [3]: A (Selective compounds showed Kv7.4 and/or Kv7.3/7.5 ΔV1/2 equal to or lower than 15 mV (letter A in table 3))

COc1ccc2c(c1)OC[C@H]2NC(=O)NCc1ccnc(OCC(F)(F)F)c1 [Compound 166]
Kv7.4 selectivity criteria [1]: A (Selective compounds showed Kv7.4 and/or Kv7.3/7.5 ΔV1/2 equal to or lower than 15 mV (letter A in table 3))
EC50 [2]: 8430 nM
Kv7.2/7.3 ΔV1/2 [2]: 52.09 mV
Kv7.3/7.5 selectivity criteria [3]: A (Selective compounds showed Kv7.4 and/or Kv7.3/7.5 ΔV1/2 equal to or lower than 15 mV (letter A in table 3))
